Earlier results as cited in article PMC4306626 (Journal of chromatography. B, Analytical technologies in …, 2015).

Conditions: cited from earlier work

CS(=O)(=O)CCNCc1ccc(-c2ccc3ncnc(Nc4ccc(OCc5cccc(F)c5)c(Cl)c4)c3c2)o1 [lapatinib]
systemic bioavailability (F) (10 mg/kg oral input): 43 – 50%
time-to-peak (Tmax) (PO, 10 mg/kg, male mice): 30 min
